This passage reports IC50 results from ChEMBL document CHEMBL1150114, “Isolation and structure of a 20,21-epoxybufenolide series from "Ch'an Su"” (J Nat Prod, 2002).

For one test, the system named is MH60. The test can be described thus: Cytotoxicity against mouse MH60 cells after 72 hrs by MTT assay. Type of test: functional, cell-based. The following applies: MH60, 72 h. On the technique in general: Tetrazolium dyes change colour on reduction, which living cells bring about.
For a further test, the system named is KB. The test can be described thus: Cytotoxicity against human KB cells after 72 hrs by MTT assay. Type of test: functional, cell-based.

In brackets after ≈: the same amount, converted by molar mass. A value given as a limit tells only on which side of the number the result lay.

Usually IC50 stands for the concentration that inhibits the measured activity by half. A high value points to weaker potency in that assay. With `C[C@]12CC[C@H](O)C[C@H]1CC[C@@H]1[C@@H]2CC[C@]2(C)[C@@H]([C@]34C=CC(=O)O[C@H]3O4)C[C@H]3O[C@]132`, the IC50 came out at 1.8 µg/mL (≈ 4.49 µM) in the test on MH60 and 8.09 µg/mL (≈ 20.2 µM) with KB.
On the same counts, the results for `C[C@]12CC[C@H](O)C[C@H]1CC[C@@H]1[C@@H]2CC[C@]2(C)[C@@H](c3ccc(=O)oc3)C[C@H]3O[C@]132` [BUFOGENIN] are 10.5 µg/mL (≈ 27.3 µM) and 1.34 µg/mL (≈ 3.48 µM).
On the same counts, the results for `C[C@]12CC[C@H](O)C[C@H]1CC[C@@H]1[C@@H]2CC[C@]2(C)[C@@H]([C@@]34C=CC(=O)O[C@@H]3O4)C[C@H]3O[C@]132` are 1.82 µg/mL (≈ 4.54 µM) and 10.9 µg/mL (≈ 27.2 µM).
`C[C@]12CC[C@H](OC=O)C[C@H]1CC[C@@H]1[C@@H]2CC[C@]2(C)[C@@H]([C@]34C=CC(=O)O[C@H]3O4)C[C@H]3O[C@]132`: the half-maximal inhibitory concentration (IC50) in the test on MH60 and in the test on KB was more than 25 µg/mL each time.
Consider `C[C@]12CCC(=O)C[C@H]1CC[C@@H]1[C@@H]2CC[C@]2(C)[C@@H]([C@@]34C=CC(=O)O[C@@H]3O4)C[C@H]3O[C@]132`, for which the half-maximal inhibitory concentration (IC50) with MH60 came to 8.54 µg/mL (≈ 21.4 µM); in the test with KB it was 18.5 µg/mL (≈ 46.4 µM).
For the compound `C[C@]12CC[C@H](OC=O)C[C@H]1CC[C@@H]1[C@@H]2CC[C@]2(C)[C@@H]([C@@]34C=CC(=O)O[C@@H]3O4)C[C@H]3O[C@]132`, the IC50 in the test on MH60 and with KB was more than 25 µg/mL throughout.
